The record followed here is patent US4740517A, “Antidiabetic spiro-3-heteroazolidines” (Sanwa Kagaku Kenyusho Co., Ltd., priority 1985, dated 1988).

For one assay, the target named is T1, aldose reductase enzyme (Rattus norvegicus, UniProt P07943).
T1 construct: Using water-soluble extracts of rat lenses; from tissue; host or cells: rat lens, water-soluble extract
The assay can be described thus: inhibition of aldose reductase enzyme activity using water-soluble extracts of rat lenses (Kador and Sharpless procedure). The class given is biochemical. The conditions noted are these: for inhibition at 10 µM: 10^-5 M; for inhibition at 1 µM: 10^-6 M; for inhibition at 0.1 µM: 10^-7 M; for IC50: read-out: IC50 (concentration of inhibitor which gives 50% inhibition). The protocol: Using water-soluble extracts of rat lenses, the inhibitions of these compounds were determined.

Assay [1] has as its system polyol increase in sciatic nerve of galactosemic rats. The assay can be described thus: reduction or inhibition of polyol (galactitol) increase in sciatic nerve of galactosemic rats. The format is in vivo, rat. The note with it: for Percent Inhibition (%) as compared to galactitol increase of the control animals: rats, 30% galactose diet, oral 10 mg/kg once a day for 8 days, sciatic nerve removed on 9th day. The protocol:
Some spiro-3-heteroazolidine compounds according to the invention were tested to evaluate their ability on reduction or inhibition of polyol increase in sciatic nerve of galactosemic rats. To the rats, 30% galactose diet was fed and said compounds were orally administered at a dose of 10 mg/kg once a day for a period of 8 days. Control animals were received the galactose diet and were administered no such compound. One day after final administration (on 9th day from the first administration), sciatic nerves were removed for galactitol determination.

[2] abbreviates: read-out: Percent Inhibition (%) of aldose reductase enzyme activity.

The term inhibition denotes how much of the control response was suppressed. In the case of `CN(C)C(=O)C1CC2(NC(=O)NC2=O)c2cc(F)ccc2O1` (stereo not drawn) [Example 5, 6-Fluoro-2,3-dihydro-N,N-dimethyl-2',5'-dioxo-spiro[4H-1-benzopyran-4,4'-imidazolidine]-2-carboxamide], at aldose reductase enzyme (setting [2]), the inhibition at 10 µM worked out at 61%, the inhibition at 1 µM was found to be 29% and the inhibition at 0.1 µM worked out at 10%. Also, the IC50 at aldose reductase enzyme amounted to 5000 nM. Further, in assay [1], the “Percent Inhibition (%) as compared to galactitol increase of the control animals” value came out at 70% and the “inhibition of polyol accumulation in sciatic nerve (in words)” value is recorded as “excellent”.
Consider `NC(=O)C1CC2(NC(=O)NC2=O)c2cc(F)ccc2O1` (stereo not drawn) [Example 2, 6-Fluoro-2,3-dihydro-2',5'-dioxo-spiro[4H-1-benzopyran-4,4'-imidazolidine]-2-carboxamide], for which, at aldose reductase enzyme (setting [2]), the inhibition at 10 µM worked out at 93%, the inhibition at 1 µM worked out at 85% and the inhibition at 0.1 µM came to 15%. Further, the IC50 at aldose reductase enzyme was found to be 400 nM. Moreover, in assay [1], the “Percent Inhibition (%) as compared to galactitol increase of the control animals” value turned out to be 85% and the “inhibition of polyol accumulation in sciatic nerve (in words)” value was “excellent”.
For `COc1ccc(NC(=O)C2CC3(NC(=O)NC3=O)c3cc(F)ccc3O2)cc1` (stereo not drawn) [Example 8, 6-Fluoro-2,3-dihydro-N-(4-methoxyphenyl)-2',5'-dioxo-spiro[4H-1-benzopyran-4,4'-imidazolidine]-2-carboxamide], at aldose reductase enzyme (setting [2]), the inhibition at 10 µM turned out to be 81%, the inhibition at 1 µM was 81% and the inhibition at 0.1 µM turned out to be 65%. In addition, the inhibition at 0.01 µM on aldose reductase enzyme (10^-8 M, read-out: Percent Inhibition (%) of aldose reductase enzyme activity) was 14%. The IC50 on aldose reductase enzyme turned out to be 70 nM. Besides, the “Percent Inhibition (%) as compared to galactitol increase of the control animals” value in assay [1] was determined as 26%.
Regarding `O=C1NC(=O)C2(CC(CO)Oc3ccc(F)cc32)N1` (stereo not drawn) [Example 12, 6-Fluoro-2,3-dihydro-2-hydroxymethyl-spiro[4H-1-benzopyran-4,4'-imidazolidine]-2',5'-dione], at aldose reductase enzyme (setting [2]), the inhibition at 10 µM is 85%, the inhibition at 1 µM amounted to 28% and the inhibition at 0.1 µM turned out to be 13%. The IC50 at aldose reductase enzyme stood at 4000 nM. The “Percent Inhibition (%) as compared to galactitol increase of the control animals” value in assay [1] turned out to be 40%.
The like results for `CNC(=O)C1CC2(NC(=O)NC2=O)c2cc(F)ccc2O1` (stereo not drawn) [Example 3, 6-Fluoro-2,3-dihydro-N-methyl-2',5'-dioxo-spiro[4H-1-benzopyran-4,4'-imidazolidine]-2-carboxamide] were, in that order, 71%, 78%, 26%, 500 nM and 31%.
The like results for `O=C1NC(=O)C2(CC(CCl)Oc3ccc(F)cc32)N1` (stereo not drawn) [Example 13, 2-Chloromethyl-6-fluoro-2,3-dihydro-spiro[4H-1-benzopyran-4,4'-imidazolidine]-2',5'-dione] were, in that order, 90%, 51%, 3%, 1000 nM and 88%.
Regarding `O=C1NC(=O)C2(CC(C(=O)O)Oc3ccc(F)cc32)N1` (stereo not drawn) [Example 1, 6-Fluoro-2,3-dihydro-2',5'-dioxo-spiro[4H-1-benzopyran-4,4'-imidazolidine]-2-carboxylic acid], on aldose reductase enzyme (setting [2]), the inhibition at 10 µM turned out to be 77%, the inhibition at 1 µM was determined as 47% and the inhibition at 0.1 µM came out at 9%. In addition, the IC50 on aldose reductase enzyme amounted to 6000 nM. In assay [1] (major versus minor diastereoisomer of Example 1), the “ability to reduce or inhibit polyol increase in sciatic nerve of galactosemic rats, potency of diastereoisomers” value is “greater than that of the minor diastereoisomer”. Besides, the “Percent Inhibition (%) as compared to galactitol increase of the control animals” value in assay [1] is recorded as 36%.
